Test results taken from ChEMBL document CHEMBL1134717 (Bioorg Med Chem Lett, 2001).

Tests used:
[1] = biological target: Kappa-type opioid receptor (Cavia porcellus, UniProt P41144); assay: Binding affinity towards guinea pig Opioid receptor kappa 1 using radioligand [3H]U-69593
[2] = biological target: Mu-type opioid receptor (Cavia porcellus, UniProt P97266); assay: Binding affinity towards Opioid receptor mu 1 of guinea pig brain membranes using radioligand 0.25 nM [3H]DAMGO
Mu-type opioid receptor, sequence (P97266 whole entry): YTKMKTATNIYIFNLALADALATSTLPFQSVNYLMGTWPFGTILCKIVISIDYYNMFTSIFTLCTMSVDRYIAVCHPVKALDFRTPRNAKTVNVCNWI

Kappa-type opioid receptor, sequence (P41144 whole entry): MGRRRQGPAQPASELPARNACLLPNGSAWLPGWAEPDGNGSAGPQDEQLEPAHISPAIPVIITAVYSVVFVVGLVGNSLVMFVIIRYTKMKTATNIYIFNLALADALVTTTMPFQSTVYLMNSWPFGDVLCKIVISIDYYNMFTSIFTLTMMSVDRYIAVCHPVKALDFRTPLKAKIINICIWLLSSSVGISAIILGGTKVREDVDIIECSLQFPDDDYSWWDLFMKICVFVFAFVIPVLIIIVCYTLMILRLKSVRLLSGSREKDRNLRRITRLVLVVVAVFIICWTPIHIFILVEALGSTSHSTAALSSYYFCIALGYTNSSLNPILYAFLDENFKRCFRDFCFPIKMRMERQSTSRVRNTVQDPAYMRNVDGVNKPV

SMILES | Ki [1] | Ki [2]
CN1CC[C@]23c4c5ccc(C(N)=O)c4OC2C(O)C=C[C@H]3[C@H]1C5 (stereo partly drawn) | 2000 nM | 34 nM
C[C@H]1[C@H]2Cc3ccc(O)cc3[C@]1(C)CCN2CC1CC1 [CYCLAZOCINE] | 0.18 nM | 
CN(C)C(=O)c1ccc2c3c1OC1C(O)C=C[C@H]4[C@@H](C2)N(C)CC[C@]314 (stereo partly drawn) | > 10000 nM | 
CNC(=O)c1ccc2c3c1OC1C(O)C=C[C@H]4[C@@H](C2)N(C)CC[C@]314 (stereo partly drawn) | > 10000 nM | 440 nM
NC(=O)c1ccc2c3c1O[C@H]1C(=O)CC[C@@]4(O)[C@@H](C2)N(CC2CC2)CC[C@]314 | 22 nM | 1.9 nM
